Laboratory results from patent publication US6242468A, “Carbamate and urea compositions and neurotrophic uses” (priority 1998, dated 2001).

Test system: TH-positive dopaminergic neurons in the striatum
Assay: MPTP Model of Parkinson's Disease; recovery of TH-positive dopaminergic neurons in the striatum
Type: in vivo, male CD1 white mice
Conditions: 4 mg/kg s.c.; MPTP 30 mg/kg i.p. for 5 days; compound along with MPTP and 5 further days; 18 days following MPTP
Procedure: MPTP lesioning of dopaminergic neurons in mice was used as an animal model of Parkinson's Disease. Four week old male CD1 white mice were dosed i.p. with 30 mg/kg of MPTP for 5 days. Test compounds (4 mg/kg), or vehicle, were administered s.c. along with the MPTP for 5 days, as well as for an additional 5 days following cessation of MPTP treatment. At 18 days following MPTP treatment, the animals were sacrificed and the striata were dissected and perfusion-fixed. Immunostaining was performed on saggital and coronal brain sections using anti-tyrosine hydroxylase […] to quantitate survival and recovery of dopaminergic neurons. In animals treated with MPTP and vehicle, a substantial loss of functional dopaminergic terminals was observed as compared to non-lesioned animals. […] Table III presents quantitation for the recovery of TH-positive dopaminergic neurons in the striatum of animals receiving compounds 1, 3, 4 and 5 in this model.

## O=C(OCCCc1cccnc1)[C@@H]1CCCN1C(=O)NC1CCCCC1 [Example 4, 3-(3-pyridyl)-1-propyl (2S)-1-[(cyclohexyl)carbamoyl]-pyrrolidine-2-carboxylate]
  % Recovery of TH Immunostaining: 59.79%

## O=C(OCCCc1cccnc1)[C@@H]1CCCN1C(=S)NC12CC3CC(CC(C3)C1)C2 [Example 5, 3-(3-pyridyl)-1-propyl (2S)-1-[(1-adamantyl)thiocarbamoyl]pyrrolidine-2-carboxylate]
  % Recovery of TH Immunostaining: 52.32%

## CCC(C)CNC(=O)N1CCC[C@H]1C(=O)OCCCc1cccnc1 (stereo partly drawn) [Example 1, 3-(3-pyridyl)-1-propyl (2S)-1-[(2-methylbutyl)carbamoyl]pyrrolidine-2-carboxylate]
  % Recovery of TH Immunostaining: 27.47%

## O=C(OCCCc1cccnc1)[C@@H]1CCCN1C(=S)NC1CCCCC1 [Example 3, 3-(3-pyridyl)-1-propyl (2S)-1-[(cyclohexyl)thiocarbamoyl]-pyrrolidine-2-carboxylate]
  % Recovery of TH Immunostaining: 56.13%
